Test results as given in patent US12077503B2, “Substituted cyclic amides and their use as herbicides” (FMC CORPORATION, priority 2015, dated 2024).

Legend:
Type in all cases: in vivo
[1] = test system: corn (Zea mays); experiment: Test G Pre-Emergence Protocol; settings: Zea mays, pre-emergence, 312 h, evaluated after 13 days; for plant injury at 15.625 g/ha: 15.625 g ai/ha; for plant injury at 15.625 g/ha / plant injury at 250 g/ha: read-out: Corn damage rating (100=total damage to plant; 0=no damage to plant); for plant injury at 62.5 g/ha: 62.5 g ai/ha, 100=total damage to plant, 0=no damage to plant, read-out: Corn damage rating; for plant injury at 250 g/ha: 250 g ai/ha
How it was run: (§1)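 Scores are visual damage ratings from 0 (no damage) to 100 (total plant kill), taken 13 days after treatment. Compound was sprayed one day post-sowing at 15.625, 62.5 or 250 g/ha in 50:50 acetone/water with 0.5% Tween 20.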

[2] = test system: redroot pigweed (Amaranthus retroflexus); experiment: Test G Pre-Emergence Protocol; settings: Amaranthus retroflexus, pre-emergence, 312 h, evaluated after 13 days; for pest or weed control at 15.625 g/ha: 15.625 g ai/ha; for pest or weed control at 15.625 g/ha / pest or weed control at 250 g/ha: read-out: Pigweed, Redroot damage rating (100=total damage to plant; 0=no damage to plant); for pest or weed control at 62.5 g/ha: 62.5 g ai/ha, 100=total damage to plant, 0=no damage to plant, read-out: Pigweed, Redroot damage rating; for pest or weed control at 250 g/ha: 250 g ai/ha
How it was run: as §1

[3] = test system: ivy-leaved morning glory (Ipomoea hederacea); experiment: Test G Pre-Emergence Protocol; settings: Ipomoea, pre-emergence, 312 h, evaluated after 13 days; for pest or weed control at 15.625 g/ha: 15.625 g ai/ha; for pest or weed control at 15.625 g/ha / pest or weed control at 250 g/ha: read-out: Morningglory, Ivy-leaved damage rating (100=total damage to plant; 0=no damage to plant); for pest or weed control at 62.5 g/ha: 62.5 g ai/ha, 100=total damage to plant, 0=no damage to plant, read-out: Morningglory, Ivy-leaved damage rating; for pest or weed control at 250 g/ha: 250 g ai/ha
How it was run: as §1

[4] = test system: velvetleaf (Abutilon theophrasti); experiment: Test G Pre-Emergence Protocol; settings: Abutilon theophrasti, pre-emergence, 312 h, evaluated after 13 days; for pest or weed control at 15.625 g/ha: 15.625 g ai/ha; for pest or weed control at 15.625 g/ha / pest or weed control at 250 g/ha: read-out: Velvetleaf damage rating (100=total damage to plant; 0=no damage to plant); for pest or weed control at 62.5 g/ha: 62.5 g ai/ha, 100=total damage to plant, 0=no damage to plant, read-out: Velvetleaf damage rating; for pest or weed control at 250 g/ha: 250 g ai/ha
How it was run: as §1

[5] = test system: giant foxtail (Setaria faberi); experiment: Test G Pre-Emergence Protocol; settings: Setaria faberi, pre-emergence, 312 h, evaluated after 13 days; for pest or weed control at 15.625 g/ha: 15.625 g ai/ha; for pest or weed control at 15.625 g/ha / pest or weed control at 250 g/ha: read-out: Foxtail, Giant damage rating (100=total damage to plant; 0=no damage to plant); for pest or weed control at 62.5 g/ha: 62.5 g ai/ha, 100=total damage to plant, 0=no damage to plant, read-out: Foxtail, Giant damage rating; for pest or weed control at 250 g/ha: 250 g ai/ha
How it was run: as §1

[6] = test system: barnyardgrass (Echinochloa crus-galli); experiment: Test G Pre-Emergence Protocol; settings: Echinochloa crus-galli, pre-emergence, 312 h, evaluated after 13 days; for pest or weed control at 15.625 g/ha: 15.625 g ai/ha; for pest or weed control at 15.625 g/ha / pest or weed control at 250 g/ha: read-out: Barnyardgrass damage rating (100=total damage to plant; 0=no damage to plant); for pest or weed control at 62.5 g/ha: 62.5 g ai/ha, 100=total damage to plant, 0=no damage to plant, read-out: Barnyardgrass damage rating; for pest or weed control at 250 g/ha: 250 g ai/ha
How it was run: as §1

[7] = test system: corn (Zea mays); experiment: Test G Post-Emergence Protocol; settings: Zea mays, post-emergence, 312 h, read-out: Corn damage rating; for plant injury at 15.625 g/ha: 15.625 g ai/ha, evaluated after 13 days (100=total damage to plant; 0=no damage to plant); for plant injury at 62.5 g/ha: 62.5 g ai/ha; for plant injury at 62.5 g/ha / plant injury at 250 g/ha: evaluated after 13 days, 100=total damage to plant, 0=no damage to plant; for plant injury at 250 g/ha: 250 g ai/ha
How it was run: (§2)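 Eight days post-sowing, plants received a spray of test compound (acetone/water 50:50, 0.5% Tween 20) at 15.625, 62.5 or 250 g/ha. Glasshouse regime thereafter: 24/16 °C, 14 h light, 65% humidity. Assessment after 13 days on a 0–100 damage scale.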

[8] = test system: redroot pigweed (Amaranthus retroflexus); experiment: Test G Post-Emergence Protocol; settings: Amaranthus retroflexus, post-emergence, 312 h, read-out: Pigweed, Redroot damage rating; for pest or weed control at 15.625 g/ha: 15.625 g ai/ha, evaluated after 13 days (100=total damage to plant; 0=no damage to plant); for pest or weed control at 62.5 g/ha: 62.5 g ai/ha; for pest or weed control at 62.5 g/ha / pest or weed control at 250 g/ha: evaluated after 13 days, 100=total damage to plant, 0=no damage to plant; for pest or weed control at 250 g/ha: 250 g ai/ha
How it was run: as §2

[9] = test system: ivy-leaved morning glory (Ipomoea hederacea); experiment: Test G Post-Emergence Protocol; settings: Ipomoea, post-emergence, 312 h, read-out: Morningglory, Ivy-leaved damage rating; for pest or weed control at 15.625 g/ha: 15.625 g ai/ha, evaluated after 13 days (100=total damage to plant; 0=no damage to plant); for pest or weed control at 62.5 g/ha: 62.5 g ai/ha; for pest or weed control at 62.5 g/ha / pest or weed control at 250 g/ha: evaluated after 13 days, 100=total damage to plant, 0=no damage to plant; for pest or weed control at 250 g/ha: 250 g ai/ha
How it was run: as §2

[10] = test system: velvetleaf (Abutilon theophrasti); experiment: Test G Post-Emergence Protocol; settings: Abutilon theophrasti, post-emergence, 312 h, read-out: Velvetleaf damage rating; for pest or weed control at 15.625 g/ha: 15.625 g ai/ha, evaluated after 13 days (100=total damage to plant; 0=no damage to plant); for pest or weed control at 62.5 g/ha: 62.5 g ai/ha; for pest or weed control at 62.5 g/ha / pest or weed control at 250 g/ha: evaluated after 13 days, 100=total damage to plant, 0=no damage to plant; for pest or weed control at 250 g/ha: 250 g ai/ha
How it was run: as §2

[11] = test system: giant foxtail (Setaria faberi); experiment: Test G Post-Emergence Protocol; settings: Setaria faberi, post-emergence, 312 h, read-out: Foxtail, Giant damage rating; for pest or weed control at 15.625 g/ha: 15.625 g ai/ha, evaluated after 13 days (100=total damage to plant; 0=no damage to plant); for pest or weed control at 62.5 g/ha: 62.5 g ai/ha; for pest or weed control at 62.5 g/ha / pest or weed control at 250 g/ha: evaluated after 13 days, 100=total damage to plant, 0=no damage to plant; for pest or weed control at 250 g/ha: 250 g ai/ha
How it was run: as §2

[12] = test system: barnyardgrass (Echinochloa crus-galli); experiment: Test G Post-Emergence Protocol; settings: Echinochloa crus-galli, post-emergence, 312 h, read-out: Barnyardgrass damage rating; for pest or weed control at 15.625 g/ha: 15.625 g ai/ha, evaluated after 13 days (100=total damage to plant; 0=no damage to plant); for pest or weed control at 62.5 g/ha: 62.5 g ai/ha; for pest or weed control at 62.5 g/ha / pest or weed control at 250 g/ha: evaluated after 13 days, 100=total damage to plant, 0=no damage to plant; for pest or weed control at 250 g/ha: 250 g ai/ha
How it was run: as §2

Row | Structure (SMILES) | plant injury at 15.625 g/ha [1] [%] | plant injury at 62.5 g/ha [1] [%] | plant injury at 250 g/ha [1] [%] | pest or weed control at 15.625 g/ha [2] [%] | pest or weed control at 62.5 g/ha [2] [%] | pest or weed control at 250 g/ha [2] [%] | pest or weed control at 15.625 g/ha [3] [%] | pest or weed control at 62.5 g/ha [3] [%] | pest or weed control at 250 g/ha [3] [%] | pest or weed control at 15.625 g/ha [4] [%] | pest or weed control at 62.5 g/ha [4] [%] | pest or weed control at 250 g/ha [4] [%] | pest or weed control at 15.625 g/ha [5] [%] | pest or weed control at 62.5 g/ha [5] [%] | pest or weed control at 250 g/ha [5] [%] | pest or weed control at 15.625 g/ha [6] [%] | pest or weed control at 62.5 g/ha [6] [%] | pest or weed control at 250 g/ha [6] [%] | plant injury at 15.625 g/ha [7] [%] | plant injury at 62.5 g/ha [7] [%] | further results
1 | CN1C[C@H](c2cccc(C(F)(F)F)c2)[C@@H](C(=O)Nc2cnccc2C#N)C1=O (racemic) [Compound 1761] | 0 | 0 | 0 | 0 | 0 | 0 | 0 | 0 | 0 | 0 | 0 | 0 | 0 | 40 | 70 | 0 | 30 | 70 | 0 | 0 | plant injury at 250 g/ha [7]: 0%; pest or weed control at 15.625 g/ha [8]: 0%; pest or weed control at 62.5 g/ha [8]: 0%; pest or weed control at 250 g/ha [8]: 10%; pest or weed control at 15.625 g/ha [9]: 0%; pest or weed control at 62.5 g/ha [9]: 40%; pest or weed control at 250 g/ha [9]: 50%; pest or weed control at 15.625 g/ha [10]: 0%; pest or weed control at 62.5 g/ha [10]: 0%; pest or weed control at 250 g/ha [10]: 10%; pest or weed control at 15.625 g/ha [11]: 0%; pest or weed control at 62.5 g/ha [11]: 0%; pest or weed control at 250 g/ha [11]: 70%; pest or weed control at 15.625 g/ha [12]: 0%; pest or weed control at 62.5 g/ha [12]: 0%; pest or weed control at 250 g/ha [12]: 70%
2 | Cc1cc([C@H]2CN(C)C(=O)[C@@H]2C(=O)Nc2cccc(F)n2)cc(C(F)(F)F)c1 (racemic) [Compound 1801] | 10 | 40 | 80 | 0 | 20 | 40 | 0 | 0 | 40 | 0 | 10 | 20 | 80 | 90 | 90 | 40 | 80 | 90 | 10 | 70 | plant injury at 250 g/ha [7]: 80%; pest or weed control at 15.625 g/ha [8]: 0%; pest or weed control at 62.5 g/ha [8]: 0%; pest or weed control at 250 g/ha [8]: 40%; pest or weed control at 15.625 g/ha [9]: 0%; pest or weed control at 62.5 g/ha [9]: 10%; pest or weed control at 250 g/ha [9]: 50%; pest or weed control at 15.625 g/ha [10]: 0%; pest or weed control at 62.5 g/ha [10]: 0%; pest or weed control at 250 g/ha [10]: 0%; pest or weed control at 15.625 g/ha [11]: 70%; pest or weed control at 62.5 g/ha [11]: 80%; pest or weed control at 250 g/ha [11]: 80%; pest or weed control at 15.625 g/ha [12]: 20%; pest or weed control at 62.5 g/ha [12]: 60%; pest or weed control at 250 g/ha [12]: 70%
3 | CC(O)c1ccccc1NC(=O)[C@H]1C(=O)N(C)C[C@@H]1c1cccc(C(F)(F)F)c1 (mixture of isomers) [Compound 1783] | 50 | 80 | 90 | 0 | 0 | 40 | 10 | 10 | 40 | 0 | 10 | 70 | 80 | 90 | 90 | 50 | 90 | 90 | 70 | 80 | plant injury at 250 g/ha [7]: 80%; pest or weed control at 15.625 g/ha [8]: 0%; pest or weed control at 62.5 g/ha [8]: 0%; pest or weed control at 250 g/ha [8]: 20%; pest or weed control at 15.625 g/ha [9]: 10%; pest or weed control at 62.5 g/ha [9]: 60%; pest or weed control at 250 g/ha [9]: 70%; pest or weed control at 15.625 g/ha [10]: 0%; pest or weed control at 62.5 g/ha [10]: 20%; pest or weed control at 250 g/ha [10]: 50%; pest or weed control at 15.625 g/ha [11]: 80%; pest or weed control at 62.5 g/ha [11]: 80%; pest or weed control at 250 g/ha [11]: 80%; pest or weed control at 15.625 g/ha [12]: 70%; pest or weed control at 62.5 g/ha [12]: 80%; pest or weed control at 250 g/ha [12]: 80%
